A short description of data set [1]: Metabolic stability: dealkylation to compound A in in vitro incubations (HPLC). The class given is in vitro ADME. The conditions noted are these: human, liver 9000 g fraction, 37° C., R1-dealkylated metabolite, read-out: relative content of compound A; for metabolised at 0.5 h: incubation time 0.5 h; for metabolised at 1 h: incubation time 1 h; for metabolised at 2 h: incubation time 2 h; for metabolised at 3 h: incubation time 3 h. The source says: It is known that compounds of formula I where R^1 =alkyl are degraded in the metabolism to compounds of the formula I where R^1 =H (in the following called compound A). Accordingly, the instant inventors sought to investigate the metabolic fate of our inventive compounds. The following experiments, which can be carried out using intact human hepatocytes or liver extracts, are used to investigate the dealkylation tendency of the compounds of the formula I according to the invention in comparison to 4-amino-2-(4,4-dimethyl-2-oxoimidazolidin-1-yl)pyrimidine-5-N-(ethyl)-N-(3-trifluoromethyl-phenyl)carboxamide hydrochloride (compound of Example 2 from EP 0 557 879--in the following called compound B).
Frozen samples of pieces of human liver stored at -78° C. were thawed by introducing them into a 1.1% strength potassium chloride solution at a temperature of 4° C. […] After thawing, the pieces of liver were prepared by standard processes [A. Y. H. Lu, W. Levin; Biochem. Biophys. Res. Comm. 46, 1339-1344 (1972), P. G. Gervasi et al.; Xenobiotica 12/8, 517 (1982)]. The temperature was kept between 0° and 4° C. during the preparation. The 9000 g fractions of ten human livers were mixed in order to exclude interindividual enzyme differences.
The test substances were dissolved in DMSO at a concentration of about 10 mg/ml. Aliquot parts of this solution were added under sterile conditions to the hepatocyte cultures or the 9000 g fractions. The incubations were carried out at 37° C. in an atmosphere having 5% CO2 and >90% atmospheric humidity. […] NADPH and Mg^2+ were added to the 9000 g fractions as cofactors [P. G. Gervasi et al.; Xenobiotica 12/8, 517 (1982)]. All samples were frozen immediately after incubation and stored at below -20° C. until analysis.
For each species and each time, all incubations with hepatocytes and 9000 g fractions were carried out without addition of a test substance. The samples obtained were used as controls in the chromatographic analysis.
For the quantitative determination of compound A, i.e. the R^1 -dealkylated metabolite, in the in vitro incubation mixtures, […] of each mixture was in each case diluted with […] of bovine serum. These samples were analyzed by the following test for the determination of compound B free base and metabolite compound A free base in serum:
Fifty microliters of the prepared solution of an internal standard (10 μg of a compound of the formula I where R^1 =CH3, R^2, R^3 =H and R^4 =CF3 /ml of methanol), 0.1 ml of sodium acetate buffer (0.4M, pH 5.5) and 5 ml of ethyl ether were added to 0.1 ml of serum. The mixture was shaken for 20 min. After centrifuging, 4 ml of the organic phase were transferred, 3 ml of n-hexane were added and the mixture was extracted with 0.5 ml of 1% strength (v/v) aqueous trifluoroacetic acid. The upper organic layer was aspirated off and discarded. The aqueous residue was evaporated at 40° C. for 30 min. in order to remove residues of the organic solvent. 100 μl of the remaining aqueous phase were injected into the HPLC apparatus. HPLC analysis was carried out on a C18 RP column (TosoHaas Semi-Micro TSK gel ODS 80 TS) using a mobile phase of 800 g of water, 270 g of acetonitrile and 1 ml of trifluoroacetic acid. The flow rate was 0.2 ml/min. The quantitative determination of the analytes was carried out by measuring the peak heights with the aid of a UV detector at γ=240 nm. The calibration range was between 50 and 0.05 μg/ml corresponding to 200 to 0.2 μg/ml in the undiluted in vitro sample. The detection limit was 0.05 μg/ml corresponding to 0.2 μg/ml in the undiluted in vitro sample.

Data set [2] relates to LDL receptor mRNA. Put plainly: Stimulation of LDL receptor mRNA expression in rat livers after administration (Northern blot). The conditions noted are these: rat liver, 6 hours after administration, untreated control=100%. The class given is in vivo. The source says:
(§1) Using a surrogate system, the present inventors sought to confirm the pharmacological activity of the inventive compounds. Thus, utilizing the human hepatocytoma cell line HepG2, which is recognized on all sides as a model, it was observed that the LDL receptor mRNA levels are increased by the compounds of the formula I (Table I). Even in rat livers, within a few hours the LDL receptor mRNA levels are increased by the compounds of the formula I (Table II). The observed stimulation is in the range from 170 to 350% of the controls (control=100%). Accordingly, an effective amount of an inventive compound can include an amount sufficient to increase CDL receptor levels or reduce plasma lipid levels.
The preparation of the mRNA was carried out according to the method of Chomczynski, P. and Sacchi, N., Anal. Biochem. 162, 156-159 (1987). In organs (such as, for example, liver), the deep-frozen tissue was homogenized on dry ice beforehand in a mortar, and the mRNA was further enriched by means of Oligo dT according to standard methods (cf. Sambrook, J., Fritsch, E. F. and Maniatis, T., Molecular Cloning, second Edition, Cold Spring Harbor (1989); in this collection of methods, there are also descriptions of all further relevant molecular biology standard methods used here). Five to […] of the dissolved mRNA thus obtained were denatured according to standard methods and separated on 1% horizontal agarose gels. The mRNA was transferred to Hybond N membranes (Amersham) by means of capillary blot. The specific hybridization probe used was a partial LDL receptor cDNA clone and the internal standard a plasmid which contained a β-actin gene. Both plasmids were labeled by means of a random primer kit from Amersham up to a specific activity of 5×10^9 cpm/μg. Prehybridization, hybridization and washing of the filters were carried out by standard methods. The filters were then exposed at -70° C. on Cronex 4 films (Dupont) overnight up to 14 days in the presence of an intensifying screen, and the hybridization signals were quantified using a commercial laser densitometer by means of the film-blackening intensity. The quotient of the intensity of the LDL receptor band and of the actin band was then determined as an internal standard to correct yield variations.
Liver tissue was removed and shock-frozen in liquid nitrogen. The mRNA was then isolated as described, and the relative LDL receptor mRNA levels were determined by means of the Northern blot technique. The mRNA levels of untreated control animals were set at 100%, and the stimulation of the LDL receptor mRNA in percent of the control was calculated.

Data set [3] concerns LDL receptor mRNA. The experiment in a line: Stimulation of LDL receptor mRNA expression in HepG2 cells (Northern blot). The class given is cell-based. The conditions noted are these: Homo sapiens, 2 × 10^-6 M, 16 h incubation, 10% fetal calf serum, LDL receptor/β-actin quotient, control=100%.
Source text: as §1
The preparation of the mRNA was carried out according to the method of Chomczynski, P. and Sacchi, N., Anal. Biochem. 162, 156-159 (1987). In organs (such as, for example, liver), the deep-frozen tissue was homogenized on dry ice beforehand in a mortar, and the mRNA was further enriched by means of Oligo dT according to standard methods (cf. Sambrook, J., Fritsch, E. F. and Maniatis, T., Molecular Cloning, second Edition, Cold Spring Harbor (1989); in this collection of methods, there are also descriptions of all further relevant molecular biology standard methods used here). […] The filters were then exposed at -70° C. on Cronex 4 films (Dupont) overnight up to 14 days in the presence of an intensifying screen, and the hybridization signals were quantified using a commercial laser densitometer by means of the film-blackening intensity. The quotient of the intensity of the LDL receptor band and of the actin band was then determined as an internal standard to correct yield variations.
Table I presents the stimulation of the LDL receptor mRNA expression in HepG2 cells by selected compounds of formula I in whole serum (final concentration of the compounds […]) after a 16 h incubation. […] The total mRNA was then prepared, and the relevant LDL receptor mRNA and β-actin mRNA levels were determined by means of the Northern blot technique. […]

These results are taken from patent publication US5773447A, “Compounds for treating disorders of lipid metabolism and their preparation” (Hoechst Aktiengesellschaft, priority 1996, dated 1998).

Counter-ions that a name gives are not always drawn. Bounds are passed on as bounds.

Turning to `CCN(C(=O)c1cnc(N2CC(C)(C)NC2=O)nc1N)c1cccc(C(F)(F)F)c1` [Compound B, 4-amino-2-(4,4-dimethyl-2-oxoimidazolidin-1-yl)pyrimidine-5-N-(ethyl)-N-(3-trifluoromethyl-phenyl)carboxamide hydrochloride, reference compound], in data set [1], the metabolised at 0.5 h was determined as 4%, the metabolised at 1 h came out at 8%, the metabolised at 2 h came out at 10% and the metabolised at 3 h turned out to be 12%. In the case of `CC1(C)CN(c2ncc(C(=O)N(CC(F)(F)C(F)(F)C(F)(F)F)c3cccc(C(F)(F)F)c3)c(N)n2)C(=O)N1` [Example 2, 4-Amino-2-(4,4-dimethylimidazolidin-2-on-1-yl)pyrimidine-5-N-(2,2,3,3,4,4,4-heptafluorobutyl)-N-[(3-trifluoromethyl)phenyl]carboxamide hydrochloride], the response vs control in vivo at 30 mg/kg in data set [2] was determined as 245%. In data set [1], the metabolised at 0.5 h was < 2%, the metabolised at 1 h was < 2%, the metabolised at 2 h is < 2% and the metabolised at 3 h was < 2%. On to `CC1(C)CN(c2ncc(C(=O)N(CC(F)(F)C(F)(F)F)c3cccc(C(F)(F)F)c3)c(N)n2)C(=O)N1` [Example 3, 4-Amino-2-(4,4-dimethylimidazolidin-2-on-1-yl-pyrimidine-5-N-(2,2,3,3,3-pentafluoropropyl)-N-[(3trifluoromethyl)phenyl]carboxamide hydrochloride], for which the response vs control in vivo at 30 mg/kg in data set [2] turned out to be 200%. As for `CC1(C)CN(c2ncc(C(=O)N(CC(F)(F)F)c3ccc(F)c(C(F)(F)F)c3)c(N)n2)C(=O)N1` [Example 6, 4-Amino-2-(4,4-dimethylimidazolidin-2-on-1-yl)pyrimidine-5-N-(2,2,2-trifluoroethyl)-N-[(4-fluoro-3-trifluoromethyl)phenyl]carboxamide], in data set [2], the response vs control in vivo at 30 mg/kg is 216%. In data set [2], `CC1(C)CN(c2ncc(C(=O)N(CC(F)(F)F)c3ccc(Cl)c(C(F)(F)F)c3)c(N)n2)C(=O)N1` [Example 8, 4-Amino-2-(4,4-dimethylimidazolidin-2-on-1-yl)pyrimidine-5-N-[(4-chloro-3-trifluoromethyl)phenyl]-N-(2,2,2-trifluoroethyl)carboxamide hydrochloride] displayed a response vs control in vivo at 30 mg/kg of 182%. As for `CC1(C)CN(c2ncc(C(=O)N(CC(F)(F)C(F)(F)F)c3ccc(Cl)c(C(F)(F)F)c3)c(N)n2)C(=O)N1` [Example 9, 4-Amino-2-(4,4-dimethylimidazolidin-2-on-1-yl)pyrimidine-5-N-[(4-chloro-3-trifluoromethyl)phenyl]-N-(2,2,3,3,3-pentafluoropropyl)carboxamide], the response vs control in vivo at 30 mg/kg in data set [2] was found to be 193%. Turning to `CC1(C)CN(c2ncc(C(=O)N(CC(F)(F)C(F)(F)C(F)(F)F)c3ccc(Cl)c(C(F)(F)F)c3)c(N)n2)C(=O)N1` [Example 10, 4-Amino-2-(4,4-dimethylimidazolidin-2-on-1-yl)pyrimidine-5-N-[(4-chloro-3-trifluoromethyl)phenyl]-N-(2,2,3,3,4,4,4-heptafluorobutyl)carboxamide], in data set [3], the activity at 2 µM came out at 206%.

For the molecule `CC1(C)CN(c2ncc(C(=O)N(CC(F)(F)C(F)(F)F)c3cc(C(F)(F)F)ccc3Cl)c(N)n2)C(=O)N1` [Example 11, 4-Amino-2-(4,4-dimethylimidazolidin-2-on-1-yl)pyrimidine-5-N-[(6-chloro-3-trifluoromethyl)phenyl]-N-(2,2,3,3,3-pentafluoropropyl)carboxamide hydrochloride], the activity at 2 µM in data set [3] was 290%. Consider `CC1(C)CN(c2ncc(C(=O)N(CCF)c3cccc(C(F)(F)F)c3)c(N)n2)C(=O)N1` [Example 12, 4-Amino-2-(4,4-dimethylimidazolidin-2-on-1-yl)pyrimidine-5-[N-(3-trifluoromethylphenyl)-N-(2-fluoroethyl)]carboxamide], for which, in data set [1], the metabolised at 0.5 h was 2%, the metabolised at 1 h came to 4%, the metabolised at 2 h was 6% and the metabolised at 3 h was 9%.

Turning to `CC1(C)CN(c2ncc(C(=O)N(CC(F)(F)C(F)(F)C(F)(F)F)c3cc(C(F)(F)F)ccc3Cl)c(N)n2)C(=O)N1` [Example 14, 4-Amino-2-(4,4-dimethylimidazolidin-2-on-1-yl)pyrimidine-5-[N-(3-trifluoromethyl-6-chlorophenyl)-N-(2,2,3,3,4,4,4-heptafluorobutyl)]-carboxamide], the response vs control in vivo at 30 mg/kg in data set [2] amounted to 194%. As to `CC1(C)CN(c2ncc(C(=O)N(CC(F)(F)C(F)(F)C(F)(F)F)c3ccc(F)c(C(F)(F)F)c3)c(N)n2)C(=O)N1` [Example 17, 4-Amino-2-(4,4-dimethylimidazolidin-2-on-1-yl)-5-pyrimidine-5-[N-(3-trifluoromethyl-4-fluorophenyl)-N-(2,2,3,3,4,4,4-heptafluorobutyl)]-carboxamide], in data set [2], the response vs control in vivo at 30 mg/kg stood at 195%.
